Assay results: PMC5430874 (Scientific Reports, 2017)
Positions count from the first letter of the chain named. Read-outs that look alike come from different tables or passages of the source.

Experiments:
GPR139 F109A^3×33 = molecular target: T1, GPR139 F109A^3×33 (Homo sapiens, UniProt Q6DWJ6, F109A); experiment: Fluo-4 Ca2+-assay, GPR139 mutant F109A; type: cell-based; parameters: key to Emax ± SEM: NE: no effect (loss of activity); conditions: for EC50: F109A mutant; for Change of in vitro potency: F109A mutant versus WT, fold decreased
T1 construct: mGluR5 signal peptide (N); expressed in transfected cells; host or cells: HEK293
T1 sequence (Q6DWJ6 2-353 F109A limits assumed): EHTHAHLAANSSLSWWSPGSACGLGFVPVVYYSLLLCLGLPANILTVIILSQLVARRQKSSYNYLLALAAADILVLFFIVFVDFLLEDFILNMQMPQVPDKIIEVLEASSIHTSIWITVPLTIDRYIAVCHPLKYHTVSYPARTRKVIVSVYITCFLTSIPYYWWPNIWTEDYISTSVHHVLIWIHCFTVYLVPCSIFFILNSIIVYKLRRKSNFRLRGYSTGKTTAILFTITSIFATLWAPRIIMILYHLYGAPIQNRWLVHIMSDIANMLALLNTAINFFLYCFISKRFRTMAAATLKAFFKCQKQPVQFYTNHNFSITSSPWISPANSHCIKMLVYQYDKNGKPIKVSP
From the text: (§1) To study the influence of specific amino acids in the predicted binding pocket on receptor function, the desired mutations were introduced into an N-terminally c-myc-tagged wild type human GPR139 (NM_001002911.3) in the pEGFP-N1 vector (BD Biosciences)[32], [33]. As previously described, these plasmids carry the signal peptide of mGluR5 to promote cell surface expression followed by a c-myc epitope to enable detection of total and surface expression by ELISA, followed by an engineered MluI and NotI site for easy insertion of the receptor of interest. Furthermore, the start-codon in the GPR139 sequence was deleted to ensure c-myc-tagging. Mutagenesis was designed in Serial Cloner 2.6 (© Franck Perez [SerialBasics]) and carried out by GenScript (USA). All mutated residues are illustrated in Supplementary Fig. 1b. An untagged GPR139(WT) in pEGFP-N1 was also generated to ensure that the c-myc-tag had no influence on GPR139(WT) function.
(§2) All GPR139 mutants were transfected into HEK293 cells. The HEK293 cells were grown in Dulbecco’s modified Eagle’s medium (DMEM) (Gibco, 41965) supplemented with 10% dialyzed fetal bovine serum (Gibco, 26400, United States origin), 100 units/mL penicillin and 100 μg/mL streptomycin (Gibco, 15140). HEK293 cells were reverse transfected using Lipofectamine2000 (Invitrogen). More specifically two mixtures were made: 1) 10 ng DNA/well + 25 μL Opti-MEM/well and 2) […] Lipofectamine2000/well + 25 μL Opti-MEM/well. The two mixtures were mixed and 50 μL/well was added directly in black 96-well plates with flat clear bottoms for the Fluo-4 Ca^2+-assay (Corning, Falcon, 353219) or in white Opaque 96-well Microplate (PerkinElmer Life, 6005680) for ELISA. 100 μL containing 20,000 cells were added to each well and incubated 48 hours before assays. All plates were coated with poly-D-lysine.
(§3) Compound 1a (1a) was kindly provided by H. Lundbeck A/S, Denmark. […] Both compounds were dissolved to 20 mM in DMSO (Sigma, D2650) and subsequently diluted in a HEPES buffer (HBSS (Gibco, 14025) supplemented with 20 mM HEPES + 1 mM MgCl2 + 1 mM CaCl2, pH = 7.4) to a final concentration of 0.5% DMSO in the Fluo-4 Ca^2+-assay. The DMSO level was kept constant for all concentrations of both compounds. DMSO was confirmed not to have any activity by itself at this concentration. L-Trp (T0254) and L -Phe (P2126) were obtained from Sigma-Aldrich and dissolved in buffer.
(§4) The Ca^2+ measurements were preformed using the Fluo-4 NW Calcium Assay Kit (Invitrogen, Molecular Probes, F36206) as previously described. Briefly, the Fluo-4 dye loading solution was prepared according to the manufacturer’s instructions by dissolving it in HEPES-buffer supplemented with 2.5 mM probenecid. 50 μL dye loading solution was added to each well. Cells were incubated with the Fluo-4 dye for 60 min at 37 °C, then washed with 100 μL HEPES-buffer. 100 μL HEPES-buffer supplemented with 2.5 mM probenecid was then added to each well and incubated in 10 minutes at 37 °C before measurement. […] Intracellular calcium changes were recorded as indicated on either a NOVOstar (BMG Labtech) at 37 °C with an excitation filter of 485 nm and an emission filters 520 nm or a FlexStation 3 Benchtop Multi-Mode Microplate Reader (Molecular Devices) at 37 °C with an excitation wavelength of 485 nm and emission of 525 nm.
(§5) All pharmacological data have been analyzed by using Prism 6.0 (GraphPad Software Inc., San Diego). Fitting of concentration response curves was performed by non-linear regression log(agonist) vs. response (four parameters). Pooled data are shown with standard error of the mean (S.E.M.) and data showing one representative are shown with standard deviation (S.D.). Changes in potency (pEC50) and span of myc-GPR139(WT) in comparison to untagged GPR139(WT) was statistically analyzed with a paired t-test and significance was accepted at p < 0.05. The ELISA data were normalized to surface expression of myc-GPR139(WT) (100%). […]

GPR139 E108A^3×32 = molecular target: T2, GPR139 E108A^3×32 (Homo sapiens, UniProt Q6DWJ6, E108A); experiment: Fluo-4 Ca2+-assay, GPR139 mutant E108A; type: cell-based; conditions: for EC50: E108A mutant
T2 construct: mGluR5 signal peptide (N); expressed in transfected cells; host or cells: HEK293
T2 sequence (Q6DWJ6 2-353 E108A limits assumed): T1 sequence (Q6DWJ6 2-353 F109A limits assumed) with E107A, A108F
From the text: as §1, §2, §3, §4, §5

[1] = only one experiment, read-out: pEC50 (converted)
[2] = three independent experiments, read-out: pEC50 ± SEM (converted)

SMILES: N[C@@H](Cc1ccccc1)C(=O)O [L-Phe, phenylalanine]
- EC50 (GPR139 F109A^3×33): > 31600 µM
- Emax at 30000 µM (GPR139 F109A^3×33; F109A, at 30 mM, normalized to buffer (0%) and 30 mM Phe (100%) on WT): 60 ± 6%
- EC50 (GPR139 E108A^3×32; [1]): 251 µM
- Emax (GPR139 E108A^3×32; E108A, normalized to buffer (0%) and 30 mM Phe (100%) on WT, n=1, read-out: Emax): 127%

SMILES: N[C@@H](Cc1c[nH]c2ccccc12)C(=O)O [L-Trp, tryptophan]
- EC50 (GPR139 F109A^3×33): > 10000 µM
- Emax at 10000 µM (GPR139 F109A^3×33; F109A, at 10 mM, normalized to buffer (0%) and 10 mM Trp (100%) on WT): 60 ± 10%
- EC50 (GPR139 E108A^3×32; [1]): 166 µM
- Emax (GPR139 E108A^3×32; E108A, normalized to buffer (0%) and 10 mM Trp (100%) on WT, n=1, read-out: Emax): 125%

SMILES: C[C@@H](NC(=O)CNC(=O)c1cccc(Cl)c1)c1ccccc1 (racemic) [Compound 7c]
- Emax at 100 µM (GPR139 F109A^3×33): 60 ± 3%
- EC50 (GPR139 F109A^3×33): > 100 µM
- Change of in vitro potency (GPR139 F109A^3×33): >2000 fold decreased
- EC50 (GPR139 E108A^3×32; [2]): 0.151 µM
- Emax (GPR139 E108A^3×32; read-out: Emax ± SEM): 112 ± 10%

SMILES: COc1cc(OC)cc(C(=O)NNC(=O)Nc2cccc3ccccc23)c1 [Compound 1a]
- EC50 (GPR139 F109A^3×33): > 7.94 µM
- Change of in vitro potency (GPR139 F109A^3×33): Loss of function
- Emax ± SEM (GPR139 F109A^3×33; F109A, at 8 μM, normalized to buffer (0%) and 8 μM 1a (100%) on WT): NE*
- change of potency (GPR139 E108A^3×32; E108A mutant versus WT): no effect
- EC50 (GPR139 E108A^3×32; [2]): 0.209 µM
- Emax (GPR139 E108A^3×32; E108A, normalized to buffer (0%) and 8 μM 1a (100%) on WT, read-out: Emax ± SEM): 151 ± 9%
